Data published in patent US8936941B2, “Compositions useful for cancer detection and treatment, a cancer stem cell model, and methods of production and use thereof” (priority 2008, dated 2015).

Assays:
DCAMKL-1 [1] = assay: siRNA knockdown of DCAMKL-1 in HCT116 cells, real-time RT-PCR and Western blot; format: cell-based, human
Experimental: (§1) Cell culture. HCT116, HCT116 p21^−/− and SW480 human colon adenocarcinoma cell lines were obtained from the American Type Culture Collection (ATCC) and grown in Dulbecco's modified eagle's medium (DMEM) supplemented with 10% fetal bovine serum and 100 U/mL penicillin-streptomycin in a humidified chamber at 37° C. with 5% CO2.
(§2) Silencer RNA. DCAMKL-1 siRNA (si-DCAMKL-1) sequence targeting the coding region of DCAMKL-1 (Accession # NM_004734 (SEQ ID NO:1)) ([…] (SEQ ID NO:3)) and scrambled control siRNAs (si-Scr) not matching any of the human genes were obtained (Ambion Inc., Austin, Tex.) and transfected using Transfectol™ (Ambion Inc.).
(§3) Real-time reverse transcription-PCR analyses. Total RNA isolated either from cells or from human colon cancer cell tumor xenograft samples was subjected to reverse transcription with Superscript™ II RNase H—Reverse Transcriptase and random hexanucleotide primers (Invitrogen, Carlsbad, Calif.). The cDNA was subsequently used to perform Real-time PCR by SYBR chemistry (SYBR® Green I; Molecular Probes) for specific transcripts using gene specific primers and Jumpstart Taq DNA polymerase (Sigma-Aldrich, St. Louis, Mo.). […] The changes in mRNA were expressed as fold change relative to control with ±SEM value.
(§4) miRNA analysis. Total miRNA was isolated using mirVana™ miRNA isolation kit (Ambion Inc.). Total miRNA isolated either from cells or from human colon cancer cell tumor xenograft samples were subjected to reverse transcription with Superscript™ II RNase H—Reverse Transcriptase and random hexanucleotide primers (Invitrogen, Carlsbad, Calif.). The cDNA was subsequently used to perform Real-time PCR by SYBR chemistry (SYBR® Green I; Molecular Probes) for pri-let-7a transcript using specific primers and Jumpstart Taq DNA polymerase (Sigma-Aldrich, St. Louis, Mo.). […] The changes in pri-miRNA were expressed as fold change relative to control with ±SEM value. Primers used are: […]
(§5) Western Blot analysis. HCT116 and SW480 cells were cultured in a 6 well plates to 40% confluency and were transfected with si-DCAMKL-1 or si-Scr for 72 h. Cells or the tumor xenograft samples were lysed and the concentration of protein was determined by BCA protein assay kit (Pierce Biotechnology Inc., Rockford, Ill.). Forty μg of the protein was size separated in a 7.5-15% SDS polyacrylamide gel and transferred onto a nitrocellulose membrane with a semidry transfer apparatus (Amersham-Pharmacia, Piscataway, N.J.). The membrane was blocked in 5% non-fat dry milk for 1 h and probed overnight with a rabbit anti-DCAMKL-1 antibody (Abcam Inc., Cambridge, Mass.) or with rabbit anti-c-Myc antibody (Santa Cruz). Subsequently, the membrane was incubated with anti-rabbit or anti-goat IgG horseradish peroxidase-conjugated antibodies (Amersham-Pharmacia) for 1 h at room temperature. The 82 kDa DCAMKL-1 and 49 kDa c-Myc proteins were detected using ECL™ Western Blotting detection reagents (Amersham-Pharmacia). Actin (43 kDa), used as loading control was identified using a goat polyclonal IgG (Santa Cruz Biotechnology Inc., Santa Cruz, Calif.).

DCAMKL-1 [2] = assay: siRNA knockdown of DCAMKL-1 in SW480 cells, real-time RT-PCR and Western blot; format: cell-based, human
Experimental: as §1, §2, §3, §4, §5

let-7a miRNA = assay: pLet7a-Luc luciferase reporter gene assay in AsPC-1 cells; format: cell-based, human
Text: (§6) Luciferase Reporter Gene Assay: pLet7a-Luc reporter vector contains a let-7a miRNA specific binding site at the 3′ UTR of the firefly (Photinus pyralis) luciferase gene, pMiR-144-Luc reporter vector containing miR-144 miRNA specific binding site at the 3′UTR of the firefly luciferase gene and KRAS-Luc reporter vector containing specific binding sites for let-7 family members at the 3′UTR of the firefly luciferase gene were obtained from Signosis, Inc. (Sunnyvale, Calif.). Human pancreatic cancer cell lines were transfected with the pLet7a-Luc, pMiR-144-Luc and KRAS-Luc reporter vectors separately with Renilla luciferase expressing plasmid pRL-TK (Promega) along with DCAMKL-1, or scrambled siRNA-using siPORT™ NeoFX™ transfection reagent (Ambion, Inc.). Luciferase activity was determined as per the manufacturer's instructions (Dual Luciferase Reporter Assay System; Promega) using a BioTek Synergy HT (Winooski, Vt.) as described herein above. The activity, normalized to Renilla luciferase activity, is presented as relative luciferase units relative to control with ±SEM values. Assays were performed in triplicate wells, and experiments were repeated 3 times.

miR-144 miRNA = assay: pMiR-144-Luc luciferase reporter gene assay in AsPC-1 cells; format: cell-based, human
Text: as §6

PICSCs = assay: Growth and survival of PICSCs after drug treatment; format: cell-based, mouse; details: siRNA transfection, 10 nM
Experimental: The PICSCs cells were treated with 100 μM drug (suprapharmacological dose) for 48 hours, and their growth and survival were evaluated. […] Moreover, the in vitro testing strategies allows for a mechanistic study of such compounds.

PICSC tumor xenografts = assay: PICSC generated isograft tumor growth in mice; format: in vivo; details: siRNA injected from day 15, 5 times at an interval of 3 days
Experimental: To determine whether targeted DCAMKL-1 downregulation and/or Notch inhibition affected […] generated isograft tumor growth, mice were treated with siRNA to DCAMKL-1 or the Notch inhibitor DAPT. After the tumors were allowed to develop (15 days), siRNA was injected a total of 5 times at an interval of 3 days as described earlier.

[3] = Western blot, 72 h transfection
[4] = real-time RT-PCR, compared to controls

Chain of DCAMKL-1 (O15075 other isoform, or with tags, fused parts or gaps): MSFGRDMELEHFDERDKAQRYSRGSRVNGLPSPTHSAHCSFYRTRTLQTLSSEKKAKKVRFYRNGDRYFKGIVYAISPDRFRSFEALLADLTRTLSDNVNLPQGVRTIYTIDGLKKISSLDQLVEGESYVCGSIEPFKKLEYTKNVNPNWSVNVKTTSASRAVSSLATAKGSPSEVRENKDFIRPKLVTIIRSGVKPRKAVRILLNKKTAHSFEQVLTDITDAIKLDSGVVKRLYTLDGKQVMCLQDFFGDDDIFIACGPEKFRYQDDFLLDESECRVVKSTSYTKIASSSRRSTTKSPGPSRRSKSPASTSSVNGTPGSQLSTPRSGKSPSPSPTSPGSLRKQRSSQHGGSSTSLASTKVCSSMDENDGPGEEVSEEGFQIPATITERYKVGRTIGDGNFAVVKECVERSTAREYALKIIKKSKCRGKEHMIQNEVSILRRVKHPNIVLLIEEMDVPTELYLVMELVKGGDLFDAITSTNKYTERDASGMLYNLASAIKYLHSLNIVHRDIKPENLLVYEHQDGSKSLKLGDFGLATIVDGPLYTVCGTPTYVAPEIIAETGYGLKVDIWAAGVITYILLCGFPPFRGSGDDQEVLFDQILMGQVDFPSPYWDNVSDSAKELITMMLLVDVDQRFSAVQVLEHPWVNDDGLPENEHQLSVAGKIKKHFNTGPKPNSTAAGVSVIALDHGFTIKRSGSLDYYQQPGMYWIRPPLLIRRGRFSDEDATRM

Substance: si-DCAMKL-1: siRNA targeting the coding region of DCAMKL-1 (NM_004734), sequence GGGAGUGAGAACAAUCUAC (SEQ ID NO:3) (chemistry not given here; listed as Homo sapiens)
- c-Myc mRNA and protein (DCAMKL-1 [1]): Reduction
- reduction in Notch-1 mRNA (DCAMKL-1 [1]): 40%
- Notch-1 and cleaved Notch-1 protein (DCAMKL-1 [1]; Western blot): dose dependent reduction
- DCAMKL-1 protein (DCAMKL-1 [1]; [3]): reduction
- reduction in DCAMKL-1 mRNA expression (DCAMKL-1 [1]; real-time RT-PCR): > 70%
- increase in pri-let-7a miRNA (DCAMKL-1 [1]; [4]): 4 fold
- c-Myc mRNA and protein (DCAMKL-1 [2]): Reduction
- reduction in Notch-1 mRNA (DCAMKL-1 [2]): > 50%
- Notch-1 and cleaved Notch-1 protein (DCAMKL-1 [2]; Western blot): dose dependent reduction
- DCAMKL-1 protein (DCAMKL-1 [2]; [3]): reduction
- reduction in DCAMKL-1 mRNA expression (DCAMKL-1 [2]; real-time RT-PCR): > 70%
- increase in pri-let-7a miRNA (DCAMKL-1 [2]; [4]): 4 fold
- increase in pri-miR-144 miRNA (DCAMKL-1 [2]; [4]): 3 fold
- luciferase activity (let-7a binding site in 3' UTR) (let-7a miRNA): dose-dependent reduction
- luciferase activity (miR-144 binding site in 3' UTR) (miR-144 miRNA): dose-dependent reduction
- neurite formation, cell growth and cell death of PICSCs (PICSCs): inhibited neurite formation, suppressed cell growth and induced cell death
- isograft tumor growth (PICSC tumor xenografts): growth arrest
